# Results: patent publication US12435060B2, “Acylamino bridged heterocyclic compound, and composition and application thereof” (BEIJING SCITECH-MQ PHARMACEUTICALS LIMITED, priority 2019, dated 2025)
# Test system: HT29 cells
# Assay: Inhibition of cell necrosis (CCK8 method), induced programmed necrosis of HT29 cells
# Format: cell-based
# Settings: Homo sapiens, HT-29; rescue from necrosis induced by TNF-α 20 ng/mL, AT-406 1 μM, Z-VAD-FMK 20 μM; 16-20 hours; CCK-8, OD 450 nm
# Summary of the method: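 HT29 cells in McCOY's 5A with 10% FBS were pre-treated for 30 min with compound (9 fourfold steps, 25000 to 0.38 nM final, 0.25% DMSO). Necrosis was then induced with TNF-α 20 ng/mL, AT-406 1 μM and Z-VAD-FMK 20 μM for 16-20 h. Viability was read by CCK-8 OD450, normalized between uninduced and induced wells, and IC50 was curve-fitted.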
row,Structure (SMILES),IC50
1,"Cc1ccc(C(N)=O)cc1-c1ccnc(NC(=O)c2nnc(Cc3ccccc3)[nH]2)c1 [Example 158, 5-benzyl-N-(4-(5-carbamoyl-2-methylphenyl)pyridin-2-yl)-4H-1,2,4-triazole-3-carboxamide]",1000 to 10000 nM
2,"Cc1ccc(OCC2(O)CC2)cc1-c1ccnc(NC(=O)c2nnc(Cc3ccccc3)[nH]2)c1 [Example 159, 5-benzyl-N-(4-(5-((1-hydroxycyclopropyl)methoxy)-2-methylphenyl)pyridin-2-yl)-4H-1,2,4-triazole-3-carboxamide]",≤ 100 nM
3,"Cc1ccc(OCCCC(C)(C)O)cc1-c1ccnc(NC(=O)c2nnc(Cc3ccccc3)[nH]2)c1 [Example 160, 5-benzyl-N-(4-(5-((4-hydroxy-4-methylpentyl)oxy)-2-methylphenyl)pyridin-2-yl)-4H-1,2,4-triazole-3-carboxamide]",≤ 100 nM
4,"Cc1cc(C(C)(C)O)ccc1-c1ccnc(NC(=O)c2nnc(Cc3ccccc3)[nH]2)c1 [Example 161, 5-benzyl-N-(4-(4-(2-hydroxypropan-2-yl)-2-methylphenyl)pyridin-2-yl)-4H-1,2,4-triazole-3-carboxamide]",100 to 1000 nM
5,"CC(=O)c1ccc(-c2ccnc(NC(=O)c3nnc(Cc4ccccc4)[nH]3)c2)c(C)c1 [Example 162, N-(4-(4-acetyl-2-methylphenyl)pyridin-2-yl)-5-benzyl-4H-1,2,4-triazole-3-carboxamide]",100 to 1000 nM
6,"Cc1ccc(OCCCC2(O)CCCC2)cc1-c1ccnc(NC(=O)c2nnc(Cc3ccccc3)[nH]2)c1 [Example 163, 5-benzyl-N-(4-(5-(3-(1-hydroxycyclopentyl)propoxy)-2-methylphenyl)pyridin-2-yl)-4H-1,2,4-triazole-3-carboxamide]",≤ 100 nM
7,"Cc1ccc(OCCCC2(O)CCCCC2)cc1-c1ccnc(NC(=O)c2nnc(Cc3ccccc3)[nH]2)c1 [Example 164, 5-benzyl-N-(4-(5-(3-(1-hydroxycyclohexyl)propoxy)-2-methylphenyl)pyridin-2-yl)-4H-1,2,4-triazole-3-carboxamide]",≤ 100 nM
8,CCC(O)(CC)CCCOc1ccc(C)c(-c2ccnc(NC(=O)c3nnc(Cc4ccccc4)[nH]3)c2)c1 [Example 165],≤ 100 nM
9,"CCC(O)(CC)CCCOc1ccc(C)c(-c2ccnc(NC(=O)c3nnc(CC4CCCC4)[nH]3)c2)c1 [Example 166, 5-(cyclopentylmethyl)-N-(4-(5-((4-ethyl-4-hydroxyhexyl)oxy)-2-methylphenyl)pyridin-2-yl)-4H-1,2,4-triazole-3-carboxamide]",≤ 100 nM
10,"Cc1ccc(OCCCCC(C)(C)O)cc1-c1ccnc(NC(=O)c2nnc(Cc3ccccc3)[nH]2)c1 [Example 167, 5-benzyl-N-(4-(5-((5-hydroxyl-5-methylhexyl)oxy)-2-methylphenyl)pyridin-2-yl)-4H-1,2,4-triazole-3-carboxamide]",≤ 100 nM
11,Cc1ccc(N(C)CCCC(C)(C)O)cc1-c1ccnc(NC(=O)c2nnc(Cc3ccccc3)[nH]2)c1 [Example 168],100 to 1000 nM
12,"Cc1ccc(OCCCC(C)(C)O)cc1-c1ccnc(NC(=O)c2nnc(CC(C)C)[nH]2)c1 [Example 169, N-(4-(5-((4-hydroxy-4-methylpentyl)oxy)-2-methylphenyl)pyridin-2-yl)-5-isobutyl-4H-1,2,4-triazole-3-carboxamide]",≤ 100 nM
13,"Cc1ccc(OCCCC(C)(C)O)cc1-c1ccnc(NC(=O)c2nnc(CC(C)(C)C)[nH]2)c1 [Example 170, N-(4-(5-((4-hydroxy-4-methylpentyl)oxy)-2-methylphenyl)pyridin-2-yl)-5-neopentyl-4H-1,2,4-triazole-3-carboxamide]",100 to 1000 nM
14,"Cc1ccc(OCCCC(C)(C)O)cc1-c1ccnc(NC(=O)c2nnc(CC3CC3)[nH]2)c1 [Example 171, 5-(cyclopropylmethyl)-N-(4-(5-((4-hydroxy-4-methylpentyl)oxy)-2-methylphenyl)pyridin-2-yl)-4H-1,2,4-triazole-3-carboxamide]",100 to 1000 nM
15,"Cc1ccc(OCCCC(C)(C)O)cc1-c1ccnc(NC(=O)c2nnc(CC3CCC3)[nH]2)c1 [Example 172, 5-(cyclobutylmethyl)-N-(4-(5-((4-hydroxy-4-methylpentyl)oxy)-2-methylphenyl)pyridin-2-yl)-4H-1,2,4-triazole-3-carboxamide]",≤ 100 nM
16,"Cc1ccc(OCCCC(C)(C)O)cc1-c1ccnc(NC(=O)c2nnc(CC3CCCC3)[nH]2)c1 [Example 173, 5-(cyclopentylmethyl)-N-(4-(5-((4-hydroxy-4-methylpentyl)oxy)-2-methylphenyl)pyridin-2-yl)-4H-1,2,4-triazole-3-carboxamide]",≤ 100 nM
17,"Cc1ccc(OCCCC(C)(C)O)cc1-c1ccnc(NC(=O)c2nnc(CC3CCCC3)o2)c1 [Example 174, 5-(cyclopentylmethyl)-N-(4-(5-((4-hydroxy-4-methylpentyl)oxy)-2-methylphenyl)pyridin-2-yl)-4H-1,3,4-oxadiazole-2-carboxamide]",100 to 1000 nM
18,"Cc1ccc(OCCCC(C)(C)O)cc1-c1ccnc(NC(=O)c2nnc(CC3CCCCC3)[nH]2)c1 [Example 175, 5-(cyclohexylmethyl)-N-(4-(5-((4-hydroxy-4-methylpentyl)oxy)-2-methylphenyl)pyridin-2-yl)-4H-1,2,4-triazole-3-carboxamide]",≤ 100 nM
19,"Cc1ccc(OCCCC(C)(C)O)cc1-c1ccnc(NC(=O)c2nnc(CCC3CCCC3)[nH]2)c1 [Example 176, 5-(2-cyclopentylethyl)-N-(4-(5-((4-hydroxy-4-methylpentyl)oxy)-2-methylphenyl)pyridin-2-yl)-4H-1,2,4-triazole-3-carboxamide]",≤ 100 nM
20,"Cc1ccc(OCCCC(C)(C)O)cc1-c1ccnc(NC(=O)c2nnc(CC3CCOCC3)[nH]2)c1 [Example 177, N-(4-(5-((4-hydroxy-4-methylpentyl)oxy)-2-methylphenyl)pyridin-2-yl)-5-((tetrahydro-2H-pyran-4-yl)methyl)-4H-1,2,4-triazole-3-carboxamide]",≤ 100 nM
21,"Cc1ccc(OCCCC(C)(C)O)cc1-c1ccnc(NC(=O)c2nnc(CC3CCC(F)(F)CC3)[nH]2)c1 [Example 178, 5-((4,4-difluorocyclohexyl)methyl)-N-(4-(5-((4-hydroxy-4-methylpentyl)oxy)-2-methylphenyl)pyridin-2-yl)-4H-1,2,4-triazole-3-carboxamide]",≤ 100 nM
22,"Cc1ccc(OCCCC(C)(C)O)cc1-c1ccnc(NC(=O)c2nnc(CC3CC4CCC3C4)[nH]2)c1 (stereo not drawn) [Example 179, 5-(bicyclo[2.2.1]heptan-2-ylmethyl)-N-(4-(5-((4-hydroxy-4-methylpentyl)oxy)-2-methylphenyl)pyridin-2-yl)-4H-1,2,4-triazole-3-carboxamide]",≤ 100 nM
23,"Cc1ccc(OCCCC(C)(C)O)cc1-c1ccnc(NC(=O)c2nnc(CC34CC5CC(CC(C5)C3)C4)[nH]2)c1 [Example 180, 5-(adamantan-1-ylmethyl)-N-(4-(5-((4-hydroxy-4-methylpentyl)oxy)-2-methylphenyl)pyridin-2-yl)-4H-1,2,4-triazole-3-carboxamide]",≤ 100 nM
24,"Cc1ccc(OCCCC(C)(C)O)cc1-c1ccnc(NC(=O)c2nnc(CN3CCOCC3)[nH]2)c1 [Example 181, N-(4-(5-((4-hydroxy-4-methylpentyl)oxy)-2-methylphenyl)pyridin-2-yl)-5-(morpholinomethyl)-4H-1,2,4-triazole-3-carboxamide]",1000 to 10000 nM
